One substance from patent US7888389B2 (The Regents of the University of Michigan, priority 2002, dated 2011) can be followed below.

The subject of one series is breast cancer cells. The series can be described thus: Human breast cancer xenograft growth in athymic nude mice. Particulars: TM 1 mg/day; TP-TM 1 mg/day and 1.5 mg/day; p<0.01 vs control. The format is in vivo. The procedure: FIG. 5. […] 10^6 breast cancer cells were injected in the mammary fat pad of 4 groups of athymic, nude mice (5 mice per group). Control mice received no treatment.
In this study, 10^6 breast cancer cells were injected in the mammary fat pad of 4 groups of athymic, nude mice (5 mice per group). Control mice received no treatment.

Series [1] in a line: Open label study of TM for initial treatment of Wilson's disease. In kind it is in vivo, human. From the text: The inventors have carried out an open label study of the use of TM for initial treatment of neurologically presenting Wilson's disease patients for the past several years. The inventors have developed both a spectrophotometric and bioassay for the activity of the drug, to evaluate stability, and assure potency of the drug being administered (Brewer et al., 1991a; Brewer et al., 1994b). The drug slowly loses potency when exposed to air.
The inventors have now treated a total of 51 Wilson's disease patients with TM, all of whom presented with neurological or psychiatric disease, in an open label study. These patients were all diagnosed by standard criteria. […] Some of them were treated briefly with other agents prior to this trial. Two patients had psychiatric but not neurological symptoms.
With three exceptions in the earliest part of the study, all patients received a dose of 20 mg tid with meals, or qid with three meals and a snack. Thus, the only difference between a patient receiving 120 mg and 140 mg total dose is that the former was receiving 20 mg tid, or 60 mg, with meals, and the latter was receiving 20 mg qid, or 80 mg with meals plus a snack. The rest of the total daily dose was divided up into three equal doses and given between meals.

[2] abbreviates: among the seven patients with anemia.

For tetrathiomolybdate [TM], the “tumor growth curves versus control animals” value in the series on breast cancer cells was “effectively inhibiting tumor growth”. For the same substance, the “cases of reversible anemia” value in series [1] (45 patients, eight weeks TM as initial therapy) is given as 11.1%. In addition, the “patients with reversible anemia/bone marrow depression” value in series [1] (51 patients treated) was “seven”. In series [1] (setting [2]), the “patients with reduction in platelet count” value was “Three” and the “patients with reduction in white blood cell count” value was “four”. Besides, in series [1] (dose of 180 mg/day or over), the overtreatment was 6 of 37 patients. In series [1] (dose of 150 or lower), the overtreatment is listed as 1 of 13 patients. For the same substance, the “time to close the plasma copper-molybdenum gap (free copper to zero)” value in series [1] (first patient) is given as 16 days. Also, the “patients with elevation of transaminase values (AST, ALT)” value in series [1] (in vivo) was “four”. For the same substance, the “quantitative speech exam scores” value in series [1] (initial 8 weeks of TM therapy) was “No patient shows significant (more than 2.0 units) reduction in scores”. The “average fall in hemoglobin” value in series [1] (the seven patients with anemia) is given as 3.4 g %. Besides, the “patients with significant neurological worsening (change of more than 5 units)” value in series [1] (weeks of TM administration) is 4 % of the sample.
